Laboratory results: the supplement of paper PMC10307832

Experiments:
Assay in all cases: relative viability (nuclei count vs DMSO), 5 days (fraction); higher = more cells survive
[1] = tested on: NCI-H460
Outline: (§1)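 Each reported value is a median over duplicate plates. It expresses relative viability: treated-well nuclei count divided by vehicle-well nuclei count. Lung cancer cell lines in 1536-well plates were dosed by pin tool a day after seeding, alone with one drug or with a fixed anchor-drug dose plus five library-drug doses (not always all listed) in √10 steps, and nuclei were counted after 5 days.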

[2] = tested on: NCI-H2126
Outline: as §1

[3] = tested on: LCLC-97TM1
Outline: as §1

[4] = tested on: HARA
Outline: as §1

[5] = tested on: NCI-H23
Outline: as §1

[6] = tested on: EMC-BAC-2
Outline: as §1

[7] = tested on: NCI-H1944
Outline: as §1

[8] = tested on: PC-3 [JPC-3]
Outline: as §1

[9] = tested on: NCI-H1792
Outline: as §1

[10] = tested on: NCI-H441
Outline: as §1

[11] = tested on: NCI-H1793
Outline: as §1

[12] = tested on: NCI-H1437
Outline: as §1

[13] = tested on: NCI-H322M
Outline: as §1

[14] = tested on: NCI-H522
Outline: as §1

[15] = tested on: SW 900
Outline: as §1

[16] = tested on: NCI-H1915
Outline: as §1

[17] = tested on: HCC-827
Outline: as §1

[18] = tested on: HCC-15
Outline: as §1

[19] = tested on: ChaGo-K-1
Outline: as §1

[20] = tested on: LU99A
Outline: as §1

[21] = tested on: EKVX
Outline: as §1

[22] = tested on: LC-2-ad
Outline: as §1

[23] = tested on: H3255
Outline: as §1

[24] = tested on: SK-LU-1
Outline: as §1

[25] = tested on: NCI-H661
Outline: as §1

## CCCCCCCCCCCC1=C(O)C(=O)C=C(O)C1=O [Embelin] + N=C(N)NC(=N)NCCc1ccccc1 [Phenformin] (partner 250 µM)
[1]; first compound 0.08 µM
  relative viability: 0.535
[1]; first compound 0.8 µM
  relative viability: 0.595
[1]; first compound 2.53 µM
  relative viability: 0.66
[1]; first compound 8 µM
  relative viability: 0.256
[2]; first compound 0.08 µM
  relative viability: 0.556
[2]; first compound 0.8 µM
  relative viability: 0.609
[2]; first compound 2.53 µM
  relative viability: 0.591
[2]; first compound 8 µM
  relative viability: 0.476
[3]; first compound 0.08 µM
  relative viability: 0.452
[3]; first compound 0.8 µM
  relative viability: 0.432
[3]; first compound 2.53 µM
  relative viability: 0.465
[3]; first compound 8 µM
  relative viability: 0.469
[4]; first compound 0.08 µM
  relative viability: 0.438
[4]; first compound 0.8 µM
  relative viability: 0.56
[4]; first compound 2.53 µM
  relative viability: 0.497
[4]; first compound 8 µM
  relative viability: 0.455
[5]; first compound 0.08 µM
  relative viability: 0.771
[5]; first compound 0.8 µM
  relative viability: 0.753
[5]; first compound 2.53 µM
  relative viability: 0.882
[5]; first compound 8 µM
  relative viability: 0.693
[6]; first compound 0.08 µM
  relative viability: 0.56
[6]; first compound 0.8 µM
  relative viability: 0.669
[6]; first compound 2.53 µM
  relative viability: 0.471
[6]; first compound 8 µM
  relative viability: 0.504
[7]; first compound 0.08 µM
  relative viability: 0.196
[7]; first compound 0.8 µM
  relative viability: 0.237
[7]; first compound 2.53 µM
  relative viability: 0.203
[7]; first compound 8 µM
  relative viability: 0.202
[8]; first compound 0.08 µM
  relative viability: 0.475
[8]; first compound 0.8 µM
  relative viability: 0.476
[8]; first compound 2.53 µM
  relative viability: 0.477
[8]; first compound 8 µM
  relative viability: 0.477
[9]; first compound 0.8 µM
  relative viability: 0.424
[9]; first compound 2.53 µM
  relative viability: 0.271
[9]; first compound 8 µM
  relative viability: 0.218
[10]; first compound 0.08 µM
  relative viability: 0.698
[10]; first compound 0.8 µM
  relative viability: 0.897
[10]; first compound 2.53 µM
  relative viability: 0.957
[10]; first compound 8 µM
  relative viability: 0.982
[11]; first compound 0.08 µM
  relative viability: 0.355
[11]; first compound 0.8 µM
  relative viability: 0.42
[11]; first compound 2.53 µM
  relative viability: 0.473
[11]; first compound 8 µM
  relative viability: 0.352
[12]; first compound 0.08 µM
  relative viability: 0.4
[12]; first compound 0.8 µM
  relative viability: 0.324
[12]; first compound 2.53 µM
  relative viability: 0.298
[12]; first compound 8 µM
  relative viability: 0.243
[13]; first compound 0.08 µM
  relative viability: 0.757
[13]; first compound 0.8 µM
  relative viability: 0.8
[13]; first compound 2.53 µM
  relative viability: 0.913
[13]; first compound 8 µM
  relative viability: 0.677
[14]; first compound 0.08 µM
  relative viability: 0.722
[14]; first compound 0.8 µM
  relative viability: 0.856
[14]; first compound 2.53 µM
  relative viability: 0.674
[14]; first compound 8 µM
  relative viability: 0.621
[15]; first compound 0.08 µM
  relative viability: 0.778
[15]; first compound 0.8 µM
  relative viability: 0.733
[15]; first compound 2.53 µM
  relative viability: 0.655
[15]; first compound 8 µM
  relative viability: 0.481
[16]; first compound 0.08 µM
  relative viability: 0.382
[16]; first compound 0.8 µM
  relative viability: 0.382
[16]; first compound 2.53 µM
  relative viability: 0.364
[16]; first compound 8 µM
  relative viability: 0.411
[17]; first compound 0.08 µM
  relative viability: 0.426
[17]; first compound 0.8 µM
  relative viability: 0.451
[17]; first compound 2.53 µM
  relative viability: 0.477
[17]; first compound 8 µM
  relative viability: 0.443
[18]; first compound 0.08 µM
  relative viability: 0.477
[18]; first compound 0.8 µM
  relative viability: 0.504
[18]; first compound 2.53 µM
  relative viability: 0.461
[18]; first compound 8 µM
  relative viability: 0.438
[19]; first compound 0.08 µM
  relative viability: 0.547
[19]; first compound 0.8 µM
  relative viability: 0.503
[19]; first compound 2.53 µM
  relative viability: 0.586
[19]; first compound 8 µM
  relative viability: 0.482
[20]; first compound 0.08 µM
  relative viability: 0.856
[20]; first compound 0.8 µM
  relative viability: 0.951
[20]; first compound 2.53 µM
  relative viability: 0.942
[20]; first compound 8 µM
  relative viability: 0.757
[21]; first compound 0.08 µM
  relative viability: 0.245
[21]; first compound 0.8 µM
  relative viability: 0.229
[21]; first compound 2.53 µM
  relative viability: 0.205
[21]; first compound 8 µM
  relative viability: 0.247
[22]; first compound 0.08 µM
  relative viability: 0.608
[22]; first compound 0.8 µM
  relative viability: 0.772
[22]; first compound 2.53 µM
  relative viability: 0.617
[22]; first compound 8 µM
  relative viability: 0.367
[23]; first compound 0.08 µM
  relative viability: 0.374
[23]; first compound 0.8 µM
  relative viability: 0.326
[23]; first compound 2.53 µM
  relative viability: 0.324
[23]; first compound 8 µM
  relative viability: 0.362
[24]; first compound 0.08 µM
  relative viability: 0.608
[24]; first compound 0.8 µM
  relative viability: 0.624
[24]; first compound 2.53 µM
  relative viability: 0.534
[24]; first compound 8 µM
  relative viability: 0.365
[25]; first compound 0.08 µM
  relative viability: 0.287
[25]; first compound 0.8 µM
  relative viability: 0.312
[25]; first compound 2.53 µM
  relative viability: 0.276
[25]; first compound 8 µM
  relative viability: 0.261
